According to US10174067B2, “Type of cytidine derivative and application thereof” (priority 2014, dated 2019):
Marks after values point to notes of the source that are not given here.

Assays:
[1] = test system: HCT-116 colon cancer xenografts; experiment: Tumor growth inhibition of HCT-116 colon cancer xenografts in tumor-bearing nude mice (tumor volume, TGI %, RTV, T/C %); assay type: in vivo, Balb/c Nude mice; details: for T/C % (relative tumor proliferation rate): dosage 400 mg/kg (G10-G16 study);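 for T/C % (relative tumor proliferation rate): control C is the vehicle-treated model control group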
Outline: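 Tumors in HCT-116-inoculated nude mice were sized three times weekly by diameter, with volume V=3/4π(D/2)^3. Significance set at P<0.05.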

[2] = Outline: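 Test compounds formulated in ethanol:Cremophor EL:saline (5:5:90), vehicle alone as control, in HCT-116 subcutaneous xenografts in female Balb/c nudes (6/group, start 60–150 mm^3). Weight measured three times weekly, tumour weight at end; unpaired t-test on Mean±SEM data.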
[3] = Day 0, G10-G16 groups, single IP 400 mg/kg
[4] = Day 0, G10-G16 groups, single IP 400 mg/kg, Mean±SEM
[5] = Day 1, G10-G16 groups, single IP 400 mg/kg, Mean±SEM
[6] = Day 2, G10-G16 groups, single IP 400 mg/kg, Mean±SEM
[7] = Day 4, G10-G16 groups, single IP 400 mg/kg, Mean±SEM
[8] = Day 7, G10-G16 groups, single IP 400 mg/kg, Mean±SEM
[9] = Day 9, G10-G16 groups, single IP 400 mg/kg, Mean±SEM
[10] = Day 11, G10-G16 groups, single IP 400 mg/kg, Mean±SEM
[11] = Day 14, G10-G16 groups, single IP 400 mg/kg, Mean±SEM
[12] = Day 16, G10-G16 groups, single IP 400 mg/kg, Mean±SEM
[13] = Day 18, G10-G16 groups, single IP 400 mg/kg, Mean±SEM
[14] = Day 21, G10-G16 groups, single IP 400 mg/kg, Mean±SEM
[15] = Day 23, G10-G16 groups, single IP 400 mg/kg, Mean±SEM
[16] = Day 25, G10-G16 groups, single IP 400 mg/kg, Mean±SEM
[17] = Day 28, G10-G16 groups, single IP 400 mg/kg, Mean±SEM
[18] = Day 30, G10-G16 groups, single IP 400 mg/kg, Mean±SEM

CCCCOC(=O)Nc1nc(=O)n([C@@H]2O[C@H](COC(=O)Cn3cnc([N+](=O)[O-])c3)C(O)C2(F)F)cc1I (stereo partly shown) [Compound G12]
Day 0 (RTV) [1, 3]: 1.00 | Tumor volume, Day 0 [1, 4]: 70.49 ± 13.19* mm^3 | T/C % (relative tumor proliferation rate) ([1]; Day 0): 0.00% | Day 1 (TGI %) ([1]; Day 1, G10-G16 groups, single IP 400 mg/kg): 62.26% | Day 1 (RTV) [1, 5]: 1.12 ± 0.22 | Tumor volume, Day 1 [1, 5]: 68.13 ± 11.02** mm^3 | T/C % (relative tumor proliferation rate) ([1]; Day 1): 66.60% | Day 2 (TGI %) ([1]; Day 2, G10-G16 groups, single IP 400 mg/kg): 63.70% | Day 2 (RTV) [1, 6]: 1.28 ± 0.22 | Tumor volume, Day 2 [1, 6]: 80.54 ± 15.99** mm^3 | T/C % (relative tumor proliferation rate) ([1]; Day 2): 61.57% | Day 4 (TGI %) ([1]; Day 4, G10-G16 groups, single IP 400 mg/kg): 58.48% | Day 4 (RTV) [1, 7]: 1.80 ± 0.23 | Tumor volume, Day 4 [1, 7]: 123.31 ± 27.06** mm^3 | T/C % (relative tumor proliferation rate) ([1]; Day 4): 65.24% | Day 7 (TGI %) ([1]; Day 7, G10-G16 groups, single IP 400 mg/kg): 51.81% | Day 7 (RTV) [1, 8]: 3.07 ± 0.38 | Tumor volume, Day 7 [1, 8]: 208.41 ± 44.11** mm^3 | T/C % (relative tumor proliferation rate) ([1]; Day 7): 75.07% | Day 9 (TGI %) ([1]; Day 9, G10-G16 groups, single IP 400 mg/kg): 49.03% | Day 9 (RTV) [1, 9]: 4.37 ± 0.50 | Tumor volume, Day 9 [1, 9]: 300.88 ± 62.43* mm^3 | T/C % (relative tumor proliferation rate) ([1]; Day 9): 77.79% | Day 11 (TGI %) ([1]; Day 11, G10-G16 groups, single IP 400 mg/kg): 51.33% | Day 11 (RTV) [1, 10]: 7.11 ± 1.07 | Tumor volume, Day 11 [1, 10]: 475.09 ± 105.26** mm^3 | T/C % (relative tumor proliferation rate) ([1]; Day 11): 77.05% | Day 14 (TGI %) ([1]; Day 14, G10-G16 groups, single IP 400 mg/kg): 39.61% | Day 14 (RTV) [1, 11]: 13.07 ± 2.18 | Tumor volume, Day 14 [1, 11]: 869.70 ± 190.68* mm^3 | T/C % (relative tumor proliferation rate) ([1]; Day 14): 94.48% | Day 16 (TGI %) ([1]; Day 16, G10-G16 groups, single IP 400 mg/kg): 30.00% | Day 16 (RTV) [1, 12]: 19.45 ± 2.82 | Tumor volume, Day 16 [1, 12]: 1267.85 ± 225.13 mm^3 | T/C % (relative tumor proliferation rate) ([1]; Day 16): 112.70% | Day 18 (TGI %) ([1]; Day 18, G10-G16 groups, single IP 400 mg/kg): 19.24% | Day 18 (RTV) [1, 13]: 26.31 ± 5.44 | Tumor volume, Day 18 [1, 13]: 1613.91 ± 242.24 mm^3 | T/C % (relative tumor proliferation rate) ([1]; Day 18): 137.82% | Day 21 (TGI %) ([1]; Day 21, G10-G16 groups, single IP 400 mg/kg): 21.29% | Day 21 (RTV) [1, 14]: 32.69 ± 8.02 | Tumor volume, Day 21 [1, 14]: 1924.26 ± 257.46 mm^3 | T/C % (relative tumor proliferation rate) ([1]; Day 21): 139.66% | Day 23 (TGI %) ([1]; Day 23, G10-G16 groups, single IP 400 mg/kg): 17.69% | Day 23 (RTV) [1, 15]: 33.10 ± 7.89 | Tumor volume, Day 23 [1, 15]: 1943.90 ± 242.19 mm^3 | T/C % (relative tumor proliferation rate) ([1]; Day 23): 167.43% | Day 25 (TGI %) ([1]; Day 25, G10-G16 groups, single IP 400 mg/kg): 17.26% | Day 25 (RTV) [1, 16]: 36.50 ± 8.74 | Tumor volume, Day 25 [1, 16]: 2136.52 ± 258.58 mm^3 | T/C % (relative tumor proliferation rate) ([1]; Day 25): 168.82% | Day 28 (TGI %) ([1]; Day 28, G10-G16 groups, single IP 400 mg/kg): 24.12% | Day 28 (RTV) [1, 17]: 43.13 ± 14.83 | Tumor volume, Day 28 [1, 17]: 2040.64 ± 281.98 mm^3 | T/C % (relative tumor proliferation rate) ([1]; Day 28): 204.13% | Day 30 (TGI %) ([1]; Day 30, G10-G16 groups, single IP 400 mg/kg): 16.67% | Day 30 (RTV) [1, 18]: 49.17 ± 15.89 | Tumor volume, Day 30 [1, 18]: 2338.31 ± 292.39 mm^3 | T/C % (relative tumor proliferation rate) ([1]; Day 30): 198.17% | Weight change rate, Day 0 [2, 3]: 0.00% | Weight of mice, Day 0 [2, 4]: 20.05 ± 0.26 g | Weight change rate, Day 1 [2, 5]: −2.59 ± 1.08% | Weight of mice, Day 1 [2, 5]: 19.53 ± 0.36 g | Weight change rate, Day 2 [2, 6]: −3.15 ± 0.93% | Weight of mice, Day 2 [2, 6]: 19.42 ± 0.29 g | Weight change rate, Day 4 [2, 7]: −1.54 ± 1.11% | Weight of mice, Day 4 [2, 7]: 19.73 ± 0.25 g | Weight change rate, Day 7 [2, 8]: −0.93 ± 1.50 % | Weight of mice, Day 7 [2, 8]: 19.85 ± 0.21 g | Weight change rate, Day 9 [2, 9]: 2.11 ± 2.28% | Weight of mice, Day 9 [2, 9]: 20.45 ± 0.32 g | Weight change rate, Day 11 [2, 10]: 3.34 ± 2.25% | Weight of mice, Day 11 [2, 10]: 20.70 ± 0.36 g | Weight change rate, Day 14 [2, 11]: 1.76 ± 2.11 % | Weight of mice, Day 14 [2, 11]: 20.38 ± 0.32 g | Weight change rate, Day 16 [2, 12]: 2.56 ± 1.91 % | Weight of mice, Day 16 [2, 12]: 20.55 ± 0.34 g | Weight change rate, Day 18 [2, 13]: 5.03 ± 2.23 % | Weight of mice, Day 18 [2, 13]: 21.05 ± 0.46 g | Weight change rate, Day 21 [2, 14]: 3.68 ± 2.13 % | Weight of mice, Day 21 [2, 14]: 20.78 ± 0.48 g | Day 22 Mortality ([2]; Day 22, single IP dose (mg/kg)): 0% | Weight change rate, Day 23 [2, 15]: 4.37 ± 1.91 % | Weight of mice, Day 23 [2, 15]: 20.92 ± 0.38 g | Weight change rate, Day 25 [2, 16]: 6.69 ± 1.87 % | Weight of mice, Day 25 [2, 16]: 21.38 ± 0.39 g | Weight change rate, Day 28 [2, 17]: 4.43 ± 0.69% | Weight of mice, Day 28 [2, 17]: 20.68 ± 0.31 g | Weight change rate, Day 30 [2, 18]: 5.67 ± 0.86% | Weight of mice, Day 30 [2, 18]: 20.93 ± 0.43 g | clinical symptoms ([2]; after single IP dose, compared with model control group): no significant differences in clinical symptoms
